{"source": "paper PMC5722318", "about": "“Absence of anti-hypocretin receptor 2 autoantibodies in post pandemrix narcolepsy cases” (PLoS ONE, 2017)", "tested_on": "DQ0602", "type": "binding, human", "conditions": "for % Read #1 / Read #1: replicate 1; for % Average: mean of two reads; for % Read #2 / Read #2: replicate 2; for Average: mean of the two raw reads; for Read #1 / Read #2: raw signal read", "key": {"[1]": {"conditions": "% of Bio-EBV binding, first assay (02/04/2016, 07/15/2016 or 08/11/2016, by peptide)"}, "[2]": {"conditions": "% of Bio-EBV binding, repeat assay (07/19/2016, 07/18/2016 or 08/12/2016, by peptide)"}, "[3]": {"conditions": "first assay (02/04/2016, 07/15/2016 or 08/11/2016, by peptide)"}, "[4]": {"conditions": "repeat assay (07/19/2016, 07/18/2016 or 08/12/2016, by peptide)"}}, "note": "Like-named read-outs stand apart in the source and are kept apart here.", "data": [{"sequence": "HDSDKGVTAACPH [HA143-155 146D, synthetic 13-mer hemagglutinin peptide containing mutated 146D]", "values": [{"measurement": "Average (two assays)", "result": 86.9741, "unit": "%"}, {"measurement": "% Read #1", "setting": "% of Bio-EBV binding (Bio-EBV average = 100), first assay (02/04/2016, 07/15/2016 or 08/11/2016, by peptide)", "result": 75.8456, "unit": "%"}, {"measurement": "% Average", "setting": "[1]", "result": 83.2638, "unit": "%"}, {"measurement": "% Average", "setting": "[2]", "result": 90.6844, "unit": "%"}, {"measurement": "% Read #1", "setting": "[2]", "result": 90.6154, "unit": "%"}, {"measurement": "% Read #2", "setting": "[1]", "result": 90.682, "unit": "%"}, {"measurement": "% Read #2", "setting": "[2]", "result": 90.7533, "unit": "%"}, {"measurement": "Average", "setting": "[3]", "result": 15669}, {"measurement": "Average", "setting": "[4]", "result": 15132.5}, {"measurement": "Read #1", "setting": "first assay (02/04/2016, 07/15/2016 or 08/11/2016, by peptide), competition against Bio-EBV epitope", "result": 14273}, {"measurement": "Read #1", "setting": "[4]", "result": 15121}, {"measurement": "Read #2", "setting": "[3]", "result": 17065}, {"measurement": "Read #2", "setting": "[4]", "result": 15144}]}]}
